Source: patent publication US12178880B2, “Antibody-drug conjugate, and intermediate thereof, preparation method therefor, and application thereof” (SHANGHAI FUDAN-ZHANGJIANG BIO-PHARMACEUTICAL CO., LTD., priority 2020, dated 2024)
pIC50: −log10 of the molar value. Where two headings read alike, the source gives them in different places. *1 amine or outer side, *2 acyl side, *3 side chain or, on linkers, in order; H or OH if unused. Where a SMILES comes first, the peptide text is derived from it. [ ]: non-standard residue; d: D form. The star is where a group is joined. X1 = CC[C@@]1(O)C(=O)OCc2c1cc1n(c2=O)Cc2c-1nc1cc(F)c(C)c3c1c2[C@H](N*)CC3; Hexanoyl(6-maleimido) = O=C1C=CC(=O)N1CCCCCC(=O)*; NHCH2OCH2CO = O=C(COCN[*:1])[*:2]

Assays:
tissue proteinase B = tissue proteinase B (Homo sapiens, UniProt P07858); experiment: In vitro enzyme digestion of linker-drug conjugates; assay type: biochemical; settings: for speed of enzyme digestion (in words): pH 5.0 to 7.0
Description: The linker-drug conjugate (LE14 and GGFG-Dxd) was co-incubated with tissue proteinase B in three different pH (5.0, 6.0, 7.0) buffers. Samples were taken at different time points and entered into a high-performance liquid chromatography-mass spectrometry instrument. The external standard method (with DXD as the external standard) was used to determine the release percentage of the drug.

[1] = Coupling of linker-drug conjugates with other antibodies; assay type: physicochemical
SK-BR-3 cell line = experiment: Killing activity of FDA026-LS13 before and after enzyme digestion; assay type: cell-based; settings: 144 hours
Description: SK-BR-3 cell line was selected as the experimental cells. After the sample was incubated in tissue proteinase B system (100 mM sodium acetate-acetic acid buffer, 4 mM dithiothreitol, pH 5.0) at 37° C. for 4 hours, the obtained sample was diluted with culture medium to different concentrations. 8 concentrations (1.5 to 10-fold dilution) were set from 70 nM to 0.003 nM of SN-38 concentration. […] The IC50 value was calculated by reading the […] after chemical luminescent staining with CellTiter-Glo® Luminescent Cell Viability Assay.

Compound | Percentage of drug release in the sample (tissue proteinase B; pH 5.0, 0 h) [%] | Percentage of drug release in the sample (tissue proteinase B; pH 5.0, 1 h) [%] | Percentage of drug release in the sample (tissue proteinase B; pH 5.0, 2 h) [%] | Percentage of drug release in the sample (tissue proteinase B; pH 5.0, 3 h) [%] | Percentage of drug release in the sample (tissue proteinase B; pH 5.0, 4 h) [%] | Percentage of drug release in the sample (tissue proteinase B; pH 5.0, 5 h) [%] | Percentage of drug release in the sample (tissue proteinase B; pH 5.0, 6 h) [%] | speed of enzyme digestion (in words) (tissue proteinase B) | Percentage of drug release in the sample (tissue proteinase B; pH 6.0, 0 h) [%] | Percentage of drug release in the sample (tissue proteinase B; pH 6.0, 1 h) [%] | Percentage of drug release in the sample (tissue proteinase B; pH 6.0, 2 h) [%] | Percentage of drug release in the sample (tissue proteinase B; pH 6.0, 3 h) [%] | Percentage of drug release in the sample (tissue proteinase B; pH 6.0, 4 h) [%] | Percentage of drug release in the sample (tissue proteinase B; pH 6.0, 5 h) [%] | Percentage of drug release in the sample (tissue proteinase B; pH 6.0, 6 h) [%] | Percentage of drug release in the sample (tissue proteinase B; pH 7.0, 0 h) [%] | Percentage of drug release in the sample (tissue proteinase B; pH 7.0, 1 h) [%] | Percentage of drug release in the sample (tissue proteinase B; pH 7.0, 2 h) [%] | Percentage of drug release in the sample (tissue proteinase B; pH 7.0, 3 h) [%] | Percentage of drug release in the sample (tissue proteinase B; pH 7.0, 4 h) [%] | further results
CC[C@@]1(O)C(=O)OCc2c1cc1n(c2=O)Cc2c-1nc1cc(F)c(C)c3c1c2[C@@H](NC(=O)COCN(CCS(C)(=O)=O)C(=O)OCc1ccc(NC(=O)[C@H](C)NC(=O)[C@@H](NC(=O)CCCCCN2C(=O)C=CC2=O)C(C)C)cc1)CC3 [LE14] | 15 | 96.93 | 98.35 | 99.01 | 99.21 | 99.32 | 97.39 | quickly enzymatically digested | 14.28 | 95.98 | 96.8 | 98.45 | 98.81 | 98.9 | 99 | 17.59 | 98.05 | 99.08 | 99.33 | 99.2 | Percentage of drug release in the sample (tissue proteinase B; pH 7.0, 5 h): 100%; Percentage of drug release in the sample (tissue proteinase B; pH 7.0, 6 h): 99.39%
CC[C@@]1(O)C(=O)OCc2c1cc1n(c2=O)Cc2c-1nc1cc(F)c(C)c3c1c2[C@H](NC(=O)COCNC(=O)CNC(=O)[C@H](Cc1ccccc1)NC(=O)CNC(=O)CNC(=O)CCCCCN1C(=O)C=CC1=O)CC3 [GGFG-Dxd, reference compound] ({Hexanoyl(6-maleimido)}-GGFG[NHCH2OCH2CO]-X1) | 21.62 | 25 | 25.85 | 27.76 | 29.72 | 31.69 | 34.17 | slow speed of enzyme digestion | 23.58 | 24.8 | 27.02 | 29.29 | 31.37 | 33.05 | 35.95 | 22.98 | 26.53 | 29.52 | 31.95 | 34.78 | Percentage of drug release in the sample (tissue proteinase B; pH 7.0, 5 h): 36.17%; Percentage of drug release in the sample (tissue proteinase B; pH 7.0, 6 h): 38.25%; aggregation ratio when coupled with other antibodies [1]: high aggregation ratio; precipitation when coupled with other antibodies [1]: produces precipitation
CCc1c2c(nc3ccc(O)cc13)-c1cc3c(c(=O)n1C2)COC(=O)[C@]3(O)CC [SN-38, 7-ethyl-10-hydroxycamptothecin] |  |  |  |  |  |  |  |  |  |  |  |  |  |  |  |  |  |  |  |  | pIC50 (SK-BR-3 cell line; read-out: IC50 (based on SN-38 equivalent) Before Enzyme Digestion): 8.15; pIC50 (SK-BR-3 cell line; after tissue proteinase B system, pH 5.0, 37° C., 4 hours, read-out: IC50 (based on SN-38 equivalent) After Enzyme Digestion): 8.14
